Assay results taken from patent US10654917B2, “Antibody molecules and peptide delivery systems for use in alzheimer's disease and related disorders” (TECHNOPHAGE, INVESTIGAÇĀO E DESENVOLVIMENTO EM …, priority 2015, dated 2020).
Where two headings read alike, the source gives them in different places. Residues, ends and D or L forms follow the SMILES beside them. *: point of attachment. X1 = Cc1nn(CCN(CCN)CCCC(=O)*)c(C)c1CC(=O)O

How the values were obtained:
[1] = Biodistribution of technetium-labelled peptides; format: in vivo, CD1 mice; settings: iv, total radioactivity
Outline: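 CD1 mice received technetium-labelled peptide (8.5×10^−5 M final labelling concentration, in PBS) by tail-vein iv injection; in a repeat study dose was raised one hundred fold. Organs were dissected, washed, weighed and counted at 5 and 60 min, or 2 and 60 min in the repeat, as % injected activity or per gram tissue.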

[2] = Partition coefficient (log Po/w) of radiopeptides; format: physicochemical
Description: Table 7 lists each peptide's name, isoelectric point (PI), charge (number of positive residues), calculated mass (in Da), and ion found; as well as the name, calculated mass, and found ion for the corresponding conjugate; and also retention times in HPLC and the partition coefficient (log Po/w). These values allowed the determination of the hydrophilic nature of peptides, where pepH1 and pepH4 were identified as the most hydrophilic peptides.

## CC[C@H](C)[C@H](NC(=O)CNC(=O)[C@H](C)NC(=O)CCCN(CCN)CCn1nc(C)c(CC(=O)O)c1C)C(=O)N[C@@H](CC(C)C)C(=O)N[C@@H](CCCCN)C(=O)N[C@@H](CCCNC(=N)N)C(=O)N[C@@H](Cc1c[nH]c2ccccc12)C(=O)O [^99mTc(CO)3-Pz^1-pepH3, metal not drawn] (X1-AGILKRW-OH; C-terminus assumed)
[1]; CD1, blood, 140 ug/mouse, 140 μg/mouse, read-out: injected activity in Blood
  tissue uptake at 2 min: 8.6 ± 0.9 %ID/g
[1]; CD1, blood, 140 ug/mouse, 140 μg/mouse, 1 hour, read-out: injected activity in Blood
  tissue uptake at 1 h: 0.43 ± 0.04 %ID/g
[1]; CD1, bone, 140 ug/mouse, 140 μg/mouse, read-out: injected activity in Bone
  tissue uptake at 2 min: 1.89 ± 0.04 %ID/g
[1]; CD1, bone, 140 ug/mouse, 140 μg/mouse, 1 hour, read-out: injected activity in Bone
  tissue uptake at 1 h: 0.19 ± 0.01 %ID/g
[1]; CD1, brain, 140 ug/mouse, 140 μg/mouse, read-out: injected activity in Brain
  tissue uptake at 2 min: 0.31 ± 0.07 %ID/g
[1]; CD1, brain, 140 ug/mouse, 140 μg/mouse, 1 hour, read-out: injected activity in Brain
  tissue uptake at 1 h: 0.03 ± 0.01 %ID/g
[1]; CD1, heart, 140 ug/mouse, 140 μg/mouse, read-out: injected activity in Heart
  tissue uptake at 2 min: 2.2 ± 0.3 %ID/g
[1]; CD1, heart, 140 ug/mouse, 140 μg/mouse, 1 hour, read-out: injected activity in Heart
  tissue uptake at 1 h: 0.14 ± 0.01 %ID/g
[1]; CD1, in vivo, 140 ug/mouse, 140 μg/mouse, 1 hour, read-out: Excretion
  dose excreted at 1 h: 36 ± 11.2%
[1]; CD1, intestine, 140 ug/mouse, 140 μg/mouse, read-out: injected activity in Intestine
  tissue uptake at 2 min: 1.4 ± 0.2 %ID/g
[1]; CD1, intestine, 140 ug/mouse, 140 μg/mouse, 1 hour, read-out: injected activity in Intestine
  tissue uptake at 1 h: 23 ± 7.9 %ID/g
[1]; CD1, kidney, 140 ug/mouse, 140 μg/mouse, read-out: injected activity in Kidney
  tissue uptake at 2 min: 23.1 ± 3.4 %ID/g
[1]; CD1, kidney, 140 ug/mouse, 140 μg/mouse, 1 hour, read-out: injected activity in Kidney
  tissue uptake at 1 h: 3.5 ± 0.7 %ID/g
[1]; CD1, liver, 140 ug/mouse, 140 μg/mouse, read-out: injected activity in Liver
  tissue uptake at 2 min: 18.8 ± 6.1 %ID/g
[1]; CD1, liver, 140 ug/mouse, 140 μg/mouse, 1 hour, read-out: injected activity in Liver
  tissue uptake at 1 h: 2.3 ± 0.2 %ID/g
[1]; CD1, lung, 140 ug/mouse, 140 μg/mouse, read-out: injected activity in Lung
  tissue uptake at 2 min: 4.48 ± 0.01 %ID/g
[1]; CD1, lung, 140 ug/mouse, 140 μg/mouse, 1 hour, read-out: injected activity in Lung
  tissue uptake at 1 h: 0.31 ± 0.03 %ID/g
[1]; CD1, muscle, 140 ug/mouse, 140 μg/mouse, read-out: injected activity in Muscle
  tissue uptake at 2 min: 1.4 ± 0.2 %ID/g
[1]; CD1, muscle, 140 ug/mouse, 140 μg/mouse, 1 hour, read-out: injected activity in Muscle
  tissue uptake at 1 h: 0.2 ± 0.1 %ID/g
[1]; CD1, spleen, 140 ug/mouse, 140 μg/mouse, read-out: injected activity in Spleen
  tissue uptake at 2 min: 1.6 ± 0.4 %ID/g
[1]; CD1, spleen, 140 ug/mouse, 140 μg/mouse, 1 hour, read-out: injected activity in Spleen
  tissue uptake at 1 h: 0.81 ± 0.01 %ID/g
[1]; CD1, stomach, 140 ug/mouse, 140 μg/mouse, read-out: injected activity in Stomach
  tissue uptake at 2 min: 1.1 ± 0.2 %ID/g
[1]; CD1, stomach, 140 ug/mouse, 140 μg/mouse, 1 hour, read-out: injected activity in Stomach
  tissue uptake at 1 h: 5.2 ± 0.7 %ID/g
[1]; mouse, blood, 10 ug, CD1 mice, 5 min, 10 μg, read-out: injected activity in Blood
  tissue uptake at 5 min: 4.7 ± 0.6 %ID/g
[1]; mouse, blood, 10 ug, CD1 mice, 1 hour, 10 μg, read-out: injected activity in Blood
  tissue uptake at 1 h: 1.2 ± 0.4 %ID/g
[1]; mouse, bone, 10 ug, CD1 mice, 5 min, 10 μg, read-out: injected activity in Bone
  tissue uptake at 5 min: 1.2 ± 0.1 %ID/g
[1]; mouse, bone, 10 ug, CD1 mice, 1 hour, 10 μg, read-out: injected activity in Bone
  tissue uptake at 1 h: 0.26 ± 0.05 %ID/g
[1]; mouse, brain, 10 ug, CD1 mice, 5 min, 10 μg, read-out: injected activity in Brain
  tissue uptake at 5 min: 0.15 ± 0.02 %ID/g
[1]; mouse, brain, 10 ug, CD1 mice, 1 hour, 10 μg, read-out: injected activity in Brain
  tissue uptake at 1 h: 0.04 ± 0.01 %ID/g
[1]; mouse, heart, 10 ug, CD1 mice, 5 min, 10 μg, read-out: injected activity in Heart
  tissue uptake at 5 min: 1.5 ± 0.5 %ID/g
[1]; mouse, heart, 10 ug, CD1 mice, 1 hour, 10 μg, read-out: injected activity in Heart
  tissue uptake at 1 h: 0.35 ± 0.01 %ID/g
[1]; mouse, in vivo, 10 ug, CD1 mice, 5 min, 10 μg, read-out: Excretion
  percent of injected dose excreted at 5 min: 19.6 ± 0.3 %ID
[1]; mouse, in vivo, 10 ug, CD1 mice, 1 hour, 10 μg, read-out: Excretion
  percent of injected dose excreted at 1 h: 10.5 ± 8.6 %ID
[1]; mouse, intestine, 10 ug, CD1 mice, 5 min, 10 μg, read-out: injected activity in Intestine
  tissue uptake at 5 min: 3 ± 0.3 %ID/g
[1]; mouse, intestine, 10 ug, CD1 mice, 1 hour, 10 μg, read-out: injected activity in Intestine
  tissue uptake at 1 h: 7.4 ± 0.4 %ID/g
[1]; mouse, kidney, 10 ug, CD1 mice, 5 min, 10 μg, read-out: injected activity in Kidney
  tissue uptake at 5 min: 11.9 ± 3.8 %ID/g
[1]; mouse, kidney, 10 ug, CD1 mice, 1 hour, 10 μg, read-out: injected activity in Kidney
  tissue uptake at 1 h: 0.4 ± 2 %ID/g
[1]; mouse, liver, 10 ug, CD1 mice, 5 min, 10 μg, read-out: injected activity in Liver
  tissue uptake at 5 min: 7.6 ± 0.1 %ID/g
[1]; mouse, liver, 10 ug, CD1 mice, 1 hour, 10 μg, read-out: injected activity in Liver
  tissue uptake at 1 h: 2.3 ± 0.2 %ID/g
[1]; mouse, lung, 10 ug, CD1 mice, 5 min, 10 μg, read-out: injected activity in Lung
  tissue uptake at 5 min: 3.7 ± 0.2 %ID/g
[1]; mouse, lung, 10 ug, CD1 mice, 1 hour, 10 μg, read-out: injected activity in Lung
  tissue uptake at 1 h: 1 ± 0.2 %ID/g
[1]; mouse, muscle, 10 ug, CD1 mice, 5 min, 10 μg, read-out: injected activity in Muscle
  tissue uptake at 5 min: 1 ± 0.2 %ID/g
[1]; mouse, muscle, 10 ug, CD1 mice, 1 hour, 10 μg, read-out: injected activity in Muscle
  tissue uptake at 1 h: 0.3 ± 0.1 %ID/g
[1]; mouse, pancreas, 10 ug, CD1 mice, 5 min, 10 μg, read-out: injected activity in Pancreas
  tissue uptake at 5 min: 1.1 ± 0.1 %ID/g
[1]; mouse, pancreas, 10 ug, CD1 mice, 1 hour, 10 μg, read-out: injected activity in Pancreas
  tissue uptake at 1 h: 0.5 ± 0.2 %ID/g
[1]; mouse, spleen, 10 ug, CD1 mice, 5 min, 10 μg, read-out: injected activity in Spleen
  tissue uptake at 5 min: 1.5 ± 0.2 %ID/g
[1]; mouse, spleen, 10 ug, CD1 mice, 1 hour, 10 μg, read-out: injected activity in Spleen
  tissue uptake at 1 h: 0.81 ± 0.01 %ID/g
[1]; mouse, stomach, 10 ug, CD1 mice, 5 min, 10 μg, read-out: injected activity in Stomach
  tissue uptake at 5 min: 0.17 ± 0.02 %ID/g
[1]; mouse, stomach, 10 ug, CD1 mice, 1 hour, 10 μg, read-out: injected activity in Stomach
  tissue uptake at 1 h: 0.4 ± 0.2 %ID/g
[2]
  log Po/w of radiopeptides: 0.11 ± 0.06
